Measured values as given in paper PMC11001641, “Iron–sulfur cluster assembly scaffold protein IscU is required for activation of ferric uptake regulator (Fur) in Escherichiacoli” (The Journal of Biological Chemistry, 2024).

Columns and labels:
E. coli FhuF = target: T1, E. coli FhuF (Escherichia coli, UniProt P39405); experiment: UV-Vis absorption of purified protein; type: binding; conditions: pH 8.0; 500 mM NaCl; protein from wild-type E. coli grown in M9 with 2 uM iron; bound during expression
T1 construct: his-tagged, expressed from pBAD in E. coli MC4100

E. coli ferredoxin (Fdx) = target: T2, E. coli ferredoxin (Fdx) (Escherichia coli, UniProt P0A9R4); experiment: UV-Vis absorption of purified protein; type: binding; conditions: pH 8.0; 500 mM NaCl; protein from wild-type E. coli grown in M9 with 2 uM iron; bound during expression
T2 construct: his-tagged, expressed from pBAD in E. coli MC4100; isc operon ferredoxin
T2 sequence (P0A9R4 2-111): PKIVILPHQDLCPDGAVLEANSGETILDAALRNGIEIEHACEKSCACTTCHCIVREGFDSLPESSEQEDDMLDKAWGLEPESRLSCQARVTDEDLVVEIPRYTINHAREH

T1 sequence (P39405 whole entry): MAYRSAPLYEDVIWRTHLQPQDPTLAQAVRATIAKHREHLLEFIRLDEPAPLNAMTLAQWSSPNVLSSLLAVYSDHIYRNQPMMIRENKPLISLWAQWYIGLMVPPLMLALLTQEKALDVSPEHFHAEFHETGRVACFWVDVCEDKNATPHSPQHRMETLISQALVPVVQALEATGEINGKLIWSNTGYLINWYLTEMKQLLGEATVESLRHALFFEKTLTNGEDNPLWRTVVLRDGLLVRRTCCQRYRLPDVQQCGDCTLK

SMILES: [S]1[Fe][S][Fe]1 [[2Fe-2S] cluster]
- UV-Vis absorption of purified protein (E. coli FhuF): [2Fe-2S] cluster assembly in the E. coli siderophore-reductase FhuF
- UV-Vis absorption of purified protein (E. coli ferredoxin (Fdx)): the E. coli ferredoxin, a [2Fe-2S] cluster-containing protein
